According to the supplement of paper PMC6045584:

Columns and labels:
Experiment in all cases: area under dose-response curve of surviving fraction (unscaled, Aref=0) (surviving fraction x log10(nM)); higher = more resistant
Settings in all cases: exposure time: 5 days; dose range 0.5-1000 nM
AFATINIB = compound: CN(C)C/C=C/C(=O)Nc1cc2c(Nc3ccc(F)c(Cl)c3)ncnc2cc1O[C@H]1CCOC1 [AFATINIB]
How it was run: (§1)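 Surviving fractions were fitted by 3-parameter logistic regression in the drc R package to give dose-response survival curves. They came from tumour cell lines treated for five days with eight inhibitor concentrations from 0.5 to 1000 nM and read by CellTiter-Glo luminescence against DMSO-only wells. The area under the curve is the unscaled activity area. It was calculated over log10 dose with Aref = 0.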

SNX-5422 = compound: CC1(C)CC(=O)c2c(C(F)(F)F)nn(-c3ccc(C(N)=O)c(N[C@H]4CC[C@H](OC(=O)CN)CC4)c3)c2C1 [SNX-5422]
How it was run: as §1

MDV3100 = compound: CNC(=O)c1ccc(N2C(=S)N(c3ccc(C#N)c(C(F)(F)F)c3)C(=O)C2(C)C)cc1F [MDV3100]
How it was run: as §1

SAPACITABINE = compound: CCCCCCCCCCCCCCCC(=O)Nc1ccn([C@@H]2O[C@H](CO)[C@@H](O)[C@@H]2C#N)c(=O)n1 [SAPACITABINE]
How it was run: as §1

[1] = compound: Cn1cc(C2=Nc3cc(NC(=O)C(N)C4CCCCC4)cc4c3C2=CNNC4=O)cn1
How it was run: as §1

TIOGUANINE = compound: Nc1nc2[nH]cnc2c(=S)[nH]1 [TIOGUANINE]
How it was run: as §1

CANERTINIB = compound: C=CC(=O)Nc1cc2c(Nc3ccc(F)c(Cl)c3)ncnc2cc1OCCCN1CCOCC1 [CANERTINIB]
How it was run: as §1

BI-2536 = compound: CC[C@@H]1C(=O)N(C)c2cnc(Nc3ccc(C(=O)NC4CCN(C)CC4)cc3OC)nc2N1C1CCCC1 [BI-2536]
How it was run: as §1

HS57T LUNG
area under dose-response curve (AFATINIB): 3.15 | area under dose-response curve (SNX-5422): 2.06 | area under dose-response curve (MDV3100): 3.03 | area under dose-response curve (SAPACITABINE): 2.37 | area under dose-response curve [1]: 2.49 | area under dose-response curve (TIOGUANINE): 3.23 | area under dose-response curve (CANERTINIB): 2.92 | area under dose-response curve (BI-2536): 1.08
